In assay [1] the test system is CD8 T cells & M21 tumor cells. Description: CD8 T cells from M21-prestimulated PBMCs restimulated with M21 tumor cells, with or without PD-1 blockade. It counts as cell-based, human. To be noted: for Average Granzyme B / Average IFN-g / Average IL-2 / Average Number of living M21 tumor cells: no cpd. As for the experimental part: For experiments investigating effects of PD-1 blockade, PBMCs were preincubated with 1 h UV-irradiated M21 tumor cells (50000 tumor cells per 1 Mill. PBMCs) for 14 days. […] Compounds and anti-PD-1 antibody (Nivolumab) or control antibody without direct effects on CD8 T cells (Ipilimumab) were added where indicated.
[…] Example 107, no antibody (no Ig), anti-PD-1 antibody (Nivolumab) or control antibody without direct effects on CD8 T cells (Ipilimumab) were included where indicated.

Assay [2] concerns aCD3/aCD28-stimulated human PBMCs. In words: Cytokine production in aCD3/aCD28 stimulated human PBMCs. It counts as cell-based. To be noted: PBMC, 18 h. In short, it runs like this:
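Ficoll-isolated human PBMCs at 1e6 cells/mL in X-Vivo15, stimulated with soluble anti-CD3/CD28 (OKT3 and 28.2, 1 μg/mL each) plus compound for 18 h at 37° C. Supernatant cytokines quantified by MSD or HTRF.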

In assay [3] the test system is aCD3/aCD28-stimulated human CD4+-T-cells. Description: IL-2 production and activation markers in aCD3/aCD28 stimulated isolated human CD4+-T-cells. The assay is classed as cell-based. To be noted: IL-2 production at 3 μM compound. In short, it runs like this: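 CD4+ T cells isolated from buffy-coat PBMCs by microbeads were plated in Xvivo medium (1.5*10^5 cells/well) and stimulated with anti-CD3/28 mAbs plus compound. IL-2 measured by ELISA in supernatants at 24 h or 48 h; CD25 and proliferation by flow cytometry, CD69 at 24 h. Activity classes based on IL-2 at 3 μM compound.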

[4] abbreviates: enhancement of IFN-γ production, read-out: Activity Class IFN-γ.
Setting [5] is: enhancement of IL-2 production, read-out: Activity Class IL-2.

Where “and” joins values, the source holds several entries; their conditions need not be identical. Equal values may be shown once. Where a name gives a salt, the structure may show the parent alone. Read-outs that look alike come from different tables or passages of the source. Where only a bound is given, the exact number is not on record here.

In the case of Nivolumab, in assay [1] (Nivolumab alone), the “reduction in viable tumor cells” value is “not able to cause a significant reduction in viable tumor cells”, the “Average Granzyme B” value stood at 1.758 ng/mL, the “Average IFN-g” value came out at 0.014 ng/mL and the “Average IL-2” value was determined as 0.046 ng/mL. For the same compound, the “Average Number of living M21 tumor cells” value in assay [1] (Nivolumab alone) was 20344 and 22655. Also, the cytokine secretion result in assay [1] (PD-1 blockade alone, CD8 T cells & M21 (expresses PD-L1)) is reported as “also enhanced cytokine secretion”.

Ipilimumab: in assay [1] (Ipilimumab alone), the “Average Granzyme B” value is 0.612 ng/mL; the “Average IFN-g” value is 0.000 ng/mL; the “Average IL-2” value stood at 0.024 ng/mL; the “Average Number of living M21 tumor cells” value was 22648 and 25130. In assay [1] (control antibody not targeting CD8 T cells), the “synergistic enhancement of cytokine production with example 107” value is “No such effects were observed”.

Turning to `CCCCNC(=O)c1cc2c(cc1F)SC[C@H](N)C(=O)N2Cc1ccc(Cl)cc1.Cl` [Example 41, (3R)-3-amino-N-butyl-5-[(4-chlorophenyl)methyl]-8-fluoro-4-oxo-2,3,4,5-tetrahydro-1,5-benzothiazepine-7-carboxamide hydrochloride], the EC50 is less than 1.58 µM in assay [2] (setting [4]) and 1.58 to 5.01 µM in assay [2] (setting [5]). Besides, the “Activity Class CD4+” value in assay [3] was “C (IL-2 production at 3 μM compound concentration between 2-fold increase as compared to mean IL-2 production of stimulated cells in the absence of compounds and <2 ng/mL)”.

With `CCCCNC(=O)c1cc2c(cc1N(C)C)S(=O)(=O)C[C@H](N)C(=O)N2Cc1ccc(Cl)cc1` [Example 114, (3R)-3-amino-N-butyl-5-[(4-chlorophenyl)methyl]-8-(dimethylamino)-1,1,4-trioxo-2,3,4,5-tetrahydro-1 λ^6,5-benzothiazepine-7-carboxamide hydrochloride], the EC50 was 1.58 to 5.01 µM in assay [2] (setting [4]) and greater than 5.01 µM in assay [2] (setting [5]). For the same compound, in assay [3], the “Activity Class CD4+” value was “C (IL-2 production at 3 μM compound concentration between 2-fold increase as compared to mean IL-2 production of stimulated cells in the absence of compounds and <2 ng/mL)”.

`Cl.N[C@H]1CSc2ccc(C(=O)NCCCC(F)(F)F)cc2N(Cc2ccc(Cl)cc2)C1=O` [Example 22, (3R)-3-amino-5-[(4-chlorophenyl)methyl]-4-oxo-N-(4,4,4-trifluorobutyl)-2,3,4,5-tetrahydro-1,5-benzothiazepine-7-carboxamide hydrochloride]: the EC50 in assay [2] (setting [4]) and in assay [2] (setting [5]) was 1.58 to 5.01 µM in each case. The “Activity Class CD4+” value in assay [3] is listed as “B (IL-2 production at 3 μM compound concentration between 2-10 ng/mL)”.

Regarding `CCCCNC(=O)c1ccc2c(c1)N(Cc1ccc(-n3cncn3)cc1)C(=O)[C@@H](N)CS2.Cl` [Example 46, (3R)-3-amino-N-butyl-4-oxo-5-{[4-(1H-1,2,4-triazol-1-yl)phenyl]methyl}-2,3,4,5-tetrahydro-1,5-benzothiazepine-7-carboxamide hydrochloride], the EC50 in assay [2] (setting [4]) was 1.58 to 5.01 µM; in assay [2] (setting [5]), greater than 5.01 µM. In addition, in assay [3], the “Activity Class CD4+” value was “C (IL-2 production at 3 μM compound concentration between 2-fold increase as compared to mean IL-2 production of stimulated cells in the absence of compounds and <2 ng/mL)”.

For the compound `COc1ccc([C@H](C)NC(=O)c2ccc3c(c2)N(Cc2ccc(Cl)cc2)C(=O)[C@@H](N)CS3)cc1` [Example 35, (3R)-3-amino-5-[(4-chlorophenyl)methyl]-N-[(1S)-1-(4-methoxyphenyl)ethyl]-4-oxo-2,3,4,5-tetrahydro-1,5-benzothiazepine-7-carboxamide], the EC50 in assay [2] (setting [4]) and in assay [2] (setting [5]) was greater than 5.01 µM each time. Also, the “Activity Class CD4+” value in assay [3] is “C (IL-2 production at 3 μM compound concentration between 2-fold increase as compared to mean IL-2 production of stimulated cells in the absence of compounds and <2 ng/mL)”.

With `Cl.N[C@H]1CSc2ccc(C(=O)NCCCC(F)(F)F)cc2N(Cc2ccc(OC(F)(F)F)cc2)C1=O` [Example 29, (3R)-3-amino-4-oxo-N-(4,4,4-trifluorobutyl)-5-{[4-(trifluoromethoxy)phenyl]methyl}-2,3,4,5-tetrahydro-1,5-benzothiazepine-7-carboxamide hydrochloride], the EC50 in assay [2] (setting [4]) and in assay [2] (setting [5]) was less than 1.58 µM in each case. Moreover, the “Activity Class CD4+” value in assay [3] was “B (IL-2 production at 3 μM compound concentration between 2-10 ng/mL)”.

For `CC(C)NC(=O)c1cc2c(cc1F)S(=O)(=O)C[C@H](N)C(=O)N2Cc1ccc(Cl)cc1F.Cl` [Example 87, (3R)-3-amino-5-[(4-chloro-2-fluorophenyl)methyl]-8-fluoro-1,1,4-trioxo-N-(propan-2-yl)-2,3,4,5-tetrahydro-1λ^6,5-benzothiazepine-7-carboxamide hydrochloride], the EC50 in assay [2] (setting [4]) and in assay [2] (setting [5]) was greater than 5.01 µM each time. Moreover, the “Activity Class CD4+” value in assay [3] was “C (IL-2 production at 3 μM compound concentration between 2-fold increase as compared to mean IL-2 production of stimulated cells in the absence of compounds and <2 ng/mL)”.

Take `CNC(=O)c1ccc2c(c1)N(Cc1ccc(OC(F)(F)F)cc1)C(=O)[C@@H](N)CS2.Cl` [Example 17, (3R)-3-amino-N-methyl-4-oxo-5-{[4-(trifluoromethoxy)phenyl]methyl}-2,3,4,5-tetrahydro-1,5-benzothiazepine-7-carboxamide hydrochloride]: in assay [2] (setting [5]), the EC50 is greater than 5.01 µM. Moreover, the “Activity Class CD4+” value in assay [3] is “C (IL-2 production at 3 μM compound concentration between 2-fold increase as compared to mean IL-2 production of stimulated cells in the absence of compounds and <2 ng/mL)”.

Consider `CCCCNC(=O)c1ccc2c(c1)N(Cc1ccc(C#N)cc1)C(=O)[C@@H](N)CS2.Cl` [Example 21, (3R)-3-amino-N-butyl-5-[(4-cyanophenyl)methyl]-4-oxo-2,3,4,5-tetrahydro-1,5-benzothiazepine-7-carboxamide hydrochloride], for which the EC50 in assay [2] (setting [4]) was less than 1.58 µM; in assay [2] (setting [5]) it was greater than 5.01 µM. In assay [3], the “Activity Class CD4+” value was “C (IL-2 production at 3 μM compound concentration between 2-fold increase as compared to mean IL-2 production of stimulated cells in the absence of compounds and <2 ng/mL)”.

For `Cl.N[C@H]1CS(=O)(=O)c2cc(F)c(C(=O)NCC3CC3)cc2N(Cc2ccc(Cl)cc2)C1=O` [Example 110, (3R)-3-amino-5-[(4-chlorophenyl)methyl]-N-(cyclopropylmethyl)-8-fluoro-1,1,4-trioxo-2,3,4,5-tetrahydro-1λ^6,5-benzothiazepine-7-carboxamide hydrochloride], the EC50 in assay [2] (setting [4]) and in assay [2] (setting [5]) was less than 1.58 µM throughout. The “Activity Class CD4+” value in assay [3] was “A (IL-2 production at 3 μM compound concentration >10 ng/mL)”.

For `CC(C)CONC(=O)c1cc2c(cc1F)S(=O)(=O)C[C@H](N)C(=O)N2Cc1ccc(Cl)cc1.Cl` [Example 75, (3R)-3-amino-5-[(4-chlorophenyl)methyl]-8-fluoro-N-(2-methylpropoxy)-1,1,4-trioxo-2,3,4,5-tetrahydro-1λ^6,5-benzothiazepine-7-carboxamide hydrochloride], the EC50 in assay [2] (setting [4]) is 1.58 to 5.01 µM; in assay [2] (setting [5]) it was greater than 5.01 µM. In assay [3], the “Activity Class CD4+” value is on record as “B (IL-2 production at 3 μM compound concentration between 2-10 ng/mL)”.

Turning to `Cl.N[C@H]1CS(=O)(=O)c2cc(F)c(C(=O)NCC(F)(F)F)cc2N(Cc2ccc(Cl)cc2)C1=O` [Example 92, (3R)-3-amino-5-[(4-chlorophenyl)methyl]-8-fluoro-1,1,4-trioxo-N-(2,2,2-trifluoro-ethyl)-2,3,4,5-tetrahydro-1λ^6,5-benzothiazepine-7-carboxamide hydrochloride], the EC50 in assay [2] (setting [4]) and in assay [2] (setting [5]) was 1.58 to 5.01 µM in each case. The “Activity Class CD4+” value in assay [3] is “B (IL-2 production at 3 μM compound concentration between 2-10 ng/mL)”.

Turning to `C[C@H]1Sc2ccc(C(=O)NCCCC(F)(F)F)cc2N(Cc2ccc(Cl)cc2)C(=O)[C@H]1N.Cl` [Example 51, (2R,3R)-3-amino-5-[(4-chlorophenyl)methyl]-2-methyl-4-oxo-N-(4,4,4-trifluorobutyl)-2,3,4,5-tetrahydro-1,5-benzothiazepine-7-carboxamide hydrochloride], the values for the EC50 in assay [2] (setting [4]) and in assay [2] (setting [5]) were less than 1.58 µM and 1.58 to 5.01 µM, respectively. Also, in assay [3], the “Activity Class CD4+” value is “C (IL-2 production at 3 μM compound concentration between 2-fold increase as compared to mean IL-2 production of stimulated cells in the absence of compounds and <2 ng/mL)”.

On to `CCCC(=O)NNC(=O)c1ccc2c(c1)N(Cc1ccc(Cl)cc1)C(=O)[C@@H](N)CS2.Cl` [Example 53, (3R)-3-amino-N′-butanoyl-5-[(4-chlorophenyl)methyl]-4-oxo-2,3,4,5-tetrahydro-1,5-benzothiazepine-7-carbohydrazide hydrochloride], for which the EC50 in assay [2] (setting [4]) and in assay [2] (setting [5]) was greater than 5.01 µM throughout. The “Activity Class CD4+” value in assay [3] was “C (IL-2 production at 3 μM compound concentration between 2-fold increase as compared to mean IL-2 production of stimulated cells in the absence of compounds and <2 ng/mL)”.

On to `Cl.N[C@H]1CSc2ccc(C(=O)NCc3ccc(F)cc3)cc2N(Cc2ccc(OC(F)(F)F)cc2)C1=O` [Example 31, (3R)-3-amino-N-[(4-fluorophenyl)methyl]-4-oxo-5-{[4-(trifluoromethoxy)phenyl]-methyl}-2,3,4,5-tetrahydro-1,5-benzothiazepine-7-carboxamide hydrochloride], for which the EC50 in assay [2] (setting [4]) and in assay [2] (setting [5]) was less than 1.58 µM throughout. Besides, the “Activity Class CD4+” value in assay [3] is “B (IL-2 production at 3 μM compound concentration between 2-10 ng/mL)”.

These data come from patent publication US10472341B2, “Bicyclic tetrahydrothiazepine derivatives useful for the treatment of neoplastic and/or infectious diseases” (APEIRON BIOLOGICS AG, priority 2015, dated 2019).
